This is an account of results in article PMC10698238 (Planta medica, 2023).

“Also recorded” adds a separate entry of the source. Like-named read-outs stand apart in the source and are kept apart here. Marks after values point to notes of the source that are not given here. Some results are limits rather than exact numbers.

Assay [1] relates to Phyllosticta citricarpa. Put plainly: Inhibition of Phyllosticta citricarpa pycnidia development in citrus leaves. It is filed as cell-based. The settings on record: 21 days; for Decrease of the number of pycnidia produced by P. citricarpa in citrus leaves: 10 mg/mL.
Assay [2] relates to Phyllosticta citricarpa. In words: Inhibition of citrus black spot development in detached citrus fruits. The settings on record: 21 days; for Inhibition of CBS symptoms in citrus fruits: 10 mg/mL. It counts as in vivo.
Assay [3] deals with PC3 (prostate cancer) cell line. In words: Cytotoxicity assay. The settings on record: read-out: IC50 PC3.
Assay [4] concerns A549 (non-small cell lung cancer) cell line. Put plainly: Cytotoxicity assay. The settings on record: read-out: IC50 A549.
Assay [5] relates to Phyllosticta citricarpa. Put plainly: Mycelial growth inhibition assay in petri dishes. It counts as cell-based. The settings on record: 21 days; for Inhibition of mycelial growth of P. citricarpa: petri dishes, 10 mg/mL.
The test system of assay [6] is HCT-116. The settings on record: cited from earlier work.
[7] abbreviates: detached C. sinensis fruits, 10 μL of 10 mg/mL solution in methanol.

Broadly, the IC50 is the concentration at which inhibition is half-maximal. In the case of `C=C1[C@@H](C)[C@H]2[C@H](Cc3ccccc3)NC(=O)[C@]23[C@H](O)/C=C/[C@](C)(O)C[C@@H](C)C/C=C/[C@H]3[C@@H]1O` [compound 7, cytochalasin J], the “Decrease of the number of pycnidia produced by P. citricarpa in citrus leaves” value (shortened to “Decrease … by P. citricarpa in citrus leaves”) in assay [1] is “less than 14%”. Besides, the “Development of citrus black spot (CBS) symptoms” value (“Development of citrus black spot” below) in assay [2] (setting [7]) was “+”. Besides, the IC50 in assay [3] (72 h incubation) and in assay [4] (72 h incubation) was > 80 µM throughout.

For `CC(=O)OC[C@]12Oc3c(-c4ccc(O)c5c4O[C@@]4(COC(C)=O)C(=C(O)C[C@@H](C)[C@H]4OC(C)=O)C5=O)ccc(O)c3C(=O)C1=C(O)C[C@@H](C)[C@H]2OC(C)=O` [compound 3, phomoxanthone A], the “Decrease … by P. citricarpa in citrus leaves” value in assay [1] came out at 70.2%. Moreover, in assay [2] (setting [7]), the “Development of citrus black spot” value is reported as “−”. For the same compound, the “Inhibition of CBS symptoms in citrus fruits” value in assay [2] (detached fruits) was “inhibited the development of citrus black spot symptoms; also recorded: completely inhibited CBS symptoms; also recorded: suppressed the hyphal growth and development of CBS lesions”. The IC50 was 3.18 ± 0.02 µM in assay [3] (Homo sapiens, 72 h) and 4.95 ± 0.53 µM in assay [4] (Homo sapiens, A549, 72 h).

As to `CC(=O)OC[C@]12Oc3ccc(-c4ccc5c(c4O)C(=O)C4=C(O)C[C@@H](C)[C@@H](OC(C)=O)[C@@]4(COC(C)=O)O5)c(O)c3C(=O)C1=C(O)C[C@@H](C)[C@H]2OC(C)=O` [compound 5, dicerandrol C], in assay [1], the “Decrease … by P. citricarpa in citrus leaves” value is “less than 14%”. Also, the “Development of citrus black spot” value in assay [2] (setting [7]) is listed as “+”. In addition, the IC50 in assay [3] (Homo sapiens, 72 h) is 2.23 ± 0.13 µM; in assay [4] (Homo sapiens, A549, 72 h), 2.92 ± 0.24 µM.

Turning to `COC(=O)Nc1nc2ccccc2[nH]1` [Carbendazim, carbendazim, reference compound], in assay [5] (positive control, carbendazim 1.0 mg/mL), the “Growth [in cm mean (± SD)] of Phyllosticta citricarpa in petri dishes” value is recorded as 0 ^* cm. The “Number of pycnidia produced in leaves by P. citricarpa” value in assay [1] (positive control) was 0. In assay [2] (positive control, 50 μg carbendazim, detached fruits), the “Development of citrus black spot” value was “−”.

On to paecilin R [compound 2], for which the “Decrease … by P. citricarpa in citrus leaves” value in assay [1] was 35.5%. Moreover, in assay [2] (setting [7]), the “Development of citrus black spot” value is recorded as “+”. Also, the IC50 in assay [3] (72 h incubation) and in assay [4] (72 h incubation) was > 80 µM each time.

For the compound `C=C1[C@@H](C)[C@H]2[C@H](Cc3ccccc3)NC(=O)[C@]23[C@H](OC(C)=O)/C=C/[C@](C)(O)C[C@@H](C)C/C=C/[C@H]3[C@@H]1O` [compound 6, cytochalasin H], the “Inhibition of mycelial growth of P. citricarpa” value in assay [5] was 80%. In assay [1], the “Decrease … by P. citricarpa in citrus leaves” value is recorded as 78.3%. Moreover, the “Development of citrus black spot” value in assay [2] (setting [7]) is on record as “−”. Further, the “Inhibition of CBS symptoms in citrus fruits” value in assay [2] (detached fruits) is “inhibited the development of citrus black spot symptoms; also recorded: completely inhibited CBS symptoms; also recorded: suppressed the hyphal growth and development of CBS lesions”. The IC50 in assay [3] (72 h incubation) and in assay [4] (72 h incubation) was > 50 µM in each case.

As for `Cc1cc(O)c2c(=O)c3c(C(=O)O)cccc3oc2c1` [8a, 8-hydroxy-6-methyl-9-oxo-9H-xanthene-1-carboxylic acid], the “Decrease … by P. citricarpa in citrus leaves” value in assay [1] was “less than 14%”.

With `COc1cc2c(cc1OC)[C@]1(O)C(=O)c3ccc4c(c3O[C@@H]1CO2)C=CC(C)(C)O4` [tephrosin], in assay [6], the “Activity against colorectal cancer cell line HCT-116” value is on record as “showed activity”.

As for `CC(=O)OC[C@]12Oc3ccc(-c4ccc(O)c5c4O[C@@]4(COC(C)=O)C(=C(O)C[C@@H](C)[C@H]4OC(C)=O)C5=O)c(O)c3C(=O)C1=C(O)C[C@@H](C)[C@H]2OC(C)=O` [compound 4, phomoxanthone B], the “Decrease … by P. citricarpa in citrus leaves” value in assay [1] was 63.1%. In addition, the “Development of citrus black spot” value in assay [2] (setting [7]) was “+”. For the same compound, the IC50 in assay [3] (Homo sapiens, 72 h) worked out at 7.39 ± 0.62 µM; in assay [4] (Homo sapiens, A549, 72 h), 10.4 ± 0.59 µM.

On to paecilin Q [compound 1], for which the “Inhibition of mycelial growth of P. citricarpa” value in assay [5] was found to be 48.6%. The “Decrease … by P. citricarpa in citrus leaves” value in assay [1] turned out to be 50.5%. Also, the “Development of citrus black spot” value in assay [2] (setting [7]) was “+”. For the same compound, the IC50 in assay [3] (72 h incubation) and in assay [4] (72 h incubation) was > 80 µM each time.

As for `Cc1cc(C(=O)O)c2c(=O)c3c(O)cccc3oc2c1` [8b, 8-hydroxy-3-methyl-9-oxo-9H-xanthene-1-carboxylic acid], the “Decrease … by P. citricarpa in citrus leaves” value in assay [1] is “less than 14%”.

For the compound `Cc1occc(=O)c1O` [compound 10, maltol], in assay [1], the “Decrease … by P. citricarpa in citrus leaves” value is “less than 14%”. In assay [2] (setting [7]), the “Development of citrus black spot” value is on record as “+”. Further, the 50% inhibitory concentration (IC50) in assay [3] (Homo sapiens, 72 h) was > 80 µM; in assay [4] (Homo sapiens, A549, 72 h), > 80 µM.

`CCCCCCCc1cc(=O)c2c(CC(=O)OC)cc(O)cc2o1` [compound 9, 5-carbomethoxymethyl-2-heptyl-7-hydroxychromone]: the “Decrease … by P. citricarpa in citrus leaves” value in assay [1] was “no activity”. In assay [2] (setting [7]), the “Development of citrus black spot” value is “+”. Also, the IC50 in assay [3] (Homo sapiens, 72 h) is > 80 µM; in assay [4] (Homo sapiens, A549, 72 h) it was > 80 µM.
